Test results taken from patent publication US5160526A, “Alkene stabilizers for 3-isothiazolone compounds” (priority 1991, dated 1992).
Where two headings read alike, the source gives them in different places.

Columns and labels:
[1] = Stabilization of 5-Chloro and 2-Methyl mixture by norbornene in 2-propanol, 55° C oven; format: physicochemical; settings: 2-propanol, 55° C
From the text: This solution was distributed into 6 vials and varying amounts of norbornene added.

[2] = 2-propanol + 2% water, 55° C
Procedure: A solution of 5-chloro-2methyl-3-isothiazolone ("5-Chloro") and 2-methyl-3-isothiazolone ("2-Methyl") (3.11 g) was prepared in 2-propanol (12.1 g). This solution was distributed in 6 vials. Water (2%) and varying amounts of norbornene were then added. These were then put in a 55° C. oven and analyzed periodically.

[3] = Stabilization of 5-Chloro and 2-Methyl mixture by norbornene in dipropylene glycol containing 0.5% water, 55° C oven; format: physicochemical; settings: DPG (0.5% water)
Procedure: To 19.9 g of dipropylene glycol was added 0.1 g of water. […] This solution was distributed into 6 vials and varying amounts of norbornene were added.

[4] = format: physicochemical; settings: 2-propanol, 55° C
Procedure: Varying amounts of DHP were added and the vials put in a 55° C. oven. Active ingredient analysis was done periodically.

[5] = format: physicochemical; settings: DPG, 55° C
Procedure: This solution was distributed into 6 vials (3 g each) and varying amounts of cyclohexene were added. The vials were then heated at 55° C. and analyzed periodically.

## Cn1sccc1=O [2-methyl-3-isothiazolone]
[1]; 0% norbornene, 0 days
  % Remaining After X Days: 4.9%
[1]; 0% norbornene, 2 days
  % Remaining After X Days: 0.4%
[1]; 0% norbornene, 30 days
  % Remaining After X Days: 0.7%
[1]
  stabilization with norbornene (in words): completely stabilized
[1]; 3% norbornene, 0 days
  % Remaining After X Days: 4.7%
[1]; 3% norbornene, 2 days
  % Remaining After X Days: 4.4%
[1]; 3% norbornene, 30 days
  % Remaining After X Days: 3.9%
[1]; 6.3% norbornene, 0 days
  % Remaining After X Days: 4.5%
[1]; 6.3% norbornene, 2 days
  % Remaining After X Days: 4.3%
[1]; 6.3% norbornene, 30 days
  % Remaining After X Days: 4.0%
[1]; 11.8% norbornene, 0 days
  % Remaining After X Days: 4.2%
[1]; 11.8% norbornene, 2 days
  % Remaining After X Days: 4.0%
[1]; 11.8% norbornene, 30 days
  % Remaining After X Days: 3.9%
[1]; 16.7% norbornene, 0 days
  % Remaining After X Days: 4.0%
[1]; 16.7% norbornene, 2 days
  % Remaining After X Days: 3.9%
[1]; 16.7% norbornene, 30 days
  % Remaining After X Days: 3.7%
[1]; 21.0% norbornene, 0 days
  % Remaining After X Days: 3.9%
[1]; 21.0% norbornene, 2 days
  % Remaining After X Days: 3.8%
[1]; 21.0% norbornene, 30 days
  % Remaining After X Days: 3.7%
[2]; 0% norbornene, 0 days
  2-Methyl (%) / 5-Chloro (%): 1.7%
[2]; 0% norbornene, 7 days
  2-Methyl (%) / 5-Chloro (%): 0.22%
[2]; 1.2% norbornene, 0 days
  2-Methyl (%) / 5-Chloro (%): 2.3%
[2]; 1.2% norbornene, 7 days
  2-Methyl (%) / 5-Chloro (%): 0.14%
[2]; 2.3% norbornene, 0 days
  2-Methyl (%) / 5-Chloro (%): 2.3%
[2]; 2.3% norbornene, 7 days
  2-Methyl (%) / 5-Chloro (%): 0.08%
[2]; 4.2% norbornene, 0 days
  2-Methyl (%) / 5-Chloro (%): 2.2%
[2]; 4.2% norbornene, 7 days
  2-Methyl (%) / 5-Chloro (%): 0.10%
[2]; 8.1% norbornene, 0 days
  2-Methyl (%) / 5-Chloro (%): 2.2%
[2]; 8.1% norbornene, 7 days
  2-Methyl (%) / 5-Chloro (%): 0.10%
[2]; 14.1% norbornene, 0 days
  2-Methyl (%) / 5-Chloro (%): 2.0%
[2]; 14.1% norbornene, 7 days
  2-Methyl (%) / 5-Chloro (%): 0.97%
[2]; 14.1% norbornene, 21 days
  2-Methyl (%) / 5-Chloro (%): 0.1%
[3]; 0% norbornene, 0 days
  2-Methyl (%) / 5-Chloro (%): 4.5%
[3]; 0% norbornene, 14 days
  2-Methyl (%) / 5-Chloro (%): 0.6%
[3]; 1.6% norbornene, 0 days
  2-Methyl (%) / 5-Chloro (%): 4.4%
[3]; 1.6% norbornene, 14 days
  2-Methyl (%) / 5-Chloro (%): 0.18%
[3]; 3.2% norbornene, 0 days
  2-Methyl (%) / 5-Chloro (%): 4.3%
[3]; 3.2% norbornene, 14 days
  2-Methyl (%) / 5-Chloro (%): 3.3%
[3]; 3.2% norbornene, 30 days
  2-Methyl (%) / 5-Chloro (%): 0.6%
[3]; 6.5% norbornene, 0 days
  2-Methyl (%) / 5-Chloro (%): 4.2%
[3]; 6.5% norbornene, 14 days
  2-Methyl (%) / 5-Chloro (%): 3.7%
[3]; 6.5% norbornene, 30 days
  2-Methyl (%) / 5-Chloro (%): 2.7%
[3]; 9.0% norbornene, 0 days
  2-Methyl (%) / 5-Chloro (%): 4.1%
[3]; 9.0% norbornene, 14 days
  2-Methyl (%) / 5-Chloro (%): 3.7%
[3]; 9.0% norbornene, 30 days
  2-Methyl (%) / 5-Chloro (%): 3.3%
[3]; 14.3% norbornene, 0 days
  2-Methyl (%) / 5-Chloro (%): 4.4%
[3]; 14.3% norbornene, 14 days
  2-Methyl (%) / 5-Chloro (%): 3.6%
[3]; 14.3% norbornene, 30 days
  2-Methyl (%) / 5-Chloro (%): 3.3%
[4]; 0% DHP, 0 days
  2-Methyl (%) / 5-Chloro (%): 5.3%
[4]; 0% DHP, 12 days
  2-Methyl (%) / 5-Chloro (%): 0.4%
[4]; 3.5% DHP, 0 days
  2-Methyl (%) / 5-Chloro (%): 5.1%
[4]; 3.5% DHP, 12 days
  2-Methyl (%) / 5-Chloro (%): 0.7%
[4]; 6.3% DHP, 0 days
  2-Methyl (%) / 5-Chloro (%): 5.0%
[4]; 6.3% DHP, 12 days
  2-Methyl (%) / 5-Chloro (%): 0.6%
[4]; 11.8% DHP, 0 days
  2-Methyl (%) / 5-Chloro (%): 4.2%
[4]; 11.8% DHP, 12 days
  2-Methyl (%) / 5-Chloro (%): 0.7%
[4]; 16.7% DHP, 0 days
  2-Methyl (%) / 5-Chloro (%): 4.4%
[4]; 16.7% DHP, 12 days
  2-Methyl (%) / 5-Chloro (%): 0.7%
[4]; 21.1% DHP, 0 days
  2-Methyl (%) / 5-Chloro (%): 4.2%
[4]; 21.1% DHP, 12 days
  2-Methyl (%) / 5-Chloro (%): 0.6%
[5]; 0% cyclohexene, 0 days
  2-Methyl (%) / 5-Chloro (%): 5.0%
[5]; 0% cyclohexene, 13 days
  2-Methyl (%) / 5-Chloro (%): 0.49%
[5]; 3.2% cyclohexene, 0 days
  2-Methyl (%) / 5-Chloro (%): 4.7%
[5]; 3.2% cyclohexene, 13 days
  2-Methyl (%) / 5-Chloro (%): 0.35%
[5]; 6.8% cyclohexene, 0 days
  2-Methyl (%) / 5-Chloro (%): 4.6%
[5]; 6.8% cyclohexene, 13 days
  2-Methyl (%) / 5-Chloro (%): 0.23%
[5]; 9.1% cyclohexene, 0 days
  2-Methyl (%) / 5-Chloro (%): 4.5%
[5]; 9.1% cyclohexene, 13 days
  2-Methyl (%) / 5-Chloro (%): 0.95%
[5]; 9.1% cyclohexene, 30 days
  2-Methyl (%) / 5-Chloro (%): 0.66%
[5]; 11.8% cyclohexene, 0 days
  2-Methyl (%) / 5-Chloro (%): 4.4%
[5]; 11.8% cyclohexene, 13 days
  2-Methyl (%) / 5-Chloro (%): 0.59%
[5]; 11.8% cyclohexene, 30 days
  2-Methyl (%) / 5-Chloro (%): 0.62%
[5]; 16.7% cyclohexene, 0 days
  2-Methyl (%) / 5-Chloro (%): 4.3%
[5]; 16.7% cyclohexene, 13 days
  2-Methyl (%) / 5-Chloro (%): 2.6%
[5]; 16.7% cyclohexene, 30 days
  2-Methyl (%) / 5-Chloro (%): 0.46%
